Reference: patent US20040162275A1, “Multivalently interactive molecular assembly, capturing agent, drug carrier, calcium chelating agent, and drug enhancer” (Nobuhiko Yui, priority 2002, published 2004)

Molecular target: concanavalin A (ConA) (Canavalia ensiformis, UniProt P02866)
Test: Hemagglutination inhibition test, Mal-polyrotaxane conjugate and ConA (Example 11)
Assay type: cell-based
Details: rat erythrocyte, ConA at 4-fold minimum hemagglutinating concentration, maltose basis, FIG. 19
Method: Next, hemagglutination inhibition test was performed to evaluate the interaction between Mal-polyrotaxane conjugate and concanavalin A (ConA), then 20 μL of diluted Mal-polyrotaxane conjugate in saline and 20 μL of solution of ConA in saline were dispensed in a 96well plate (U-bottom), stirred, and then incubated at 37° C. for 30 minutes. Next, 40 μL of 2% (v/v) rat erytlirocyte was added to the plate, and the mixture was stirred and then incubated at 37° C. for 30 minutes. The precipitation of erythrocyte was monitored to determine hemagglutination, and the minimum concentration to inhibit hemagglutination was determined. The ConA concentration was set up at a 4-fold higher value than the minimum concentration of ConA at which hemagglutination occurs.
Relative MIC=(Min. inhibitory conc. of maltose)/(Min inhibitory conc. of maltose in the conjugate)

**Q.** `OC[C@H]1O[C@H](O[C@H]2[C@H](O)[C@@H](O)C(O)O[C@@H]2CO)[C@H](O)[C@@H](O)[C@@H]1O` (mixture of isomers) [Mal, maltose] was tested. Which “minimum concentration to inhibit hemagglutination” value did it give?
**A.** 9.1 mM
